Like-named read-outs stand apart in the source and are kept apart here.
Columns and labels:
[1] = target: DCN2 (DCUND2) protein PONY domain (Homo sapiens (Human), UniProt Q6PH85); test: DCN2 TR-FRET assay, measurement of Kinact/KI; format: binding
Description: A TR-FRET Assay was performed to evaluate the ability of the compounds to bind DCN-2. The time resolved—Forster's resonance energy transfer (TR-FRET) assay was designed following the protocol established in (Scott et al., Nat Chem Biol. 2017 August; 13(8): 850-857). A recombinant form of the DCN2 (DCUND2) protein PONY domain was produced using an E. coli expression system at Viva Biotech China. The DCN2 protein was biotinylated (EZ sulfo-NHS-LC-biotin; Thermofisher) for labeling with 2.5 nM streptavidin terbium (Tb) cryptate in the reaction. The probe was changed to a non-covalent DCN1 inhibitor labeled with carboxyfluorescein (FAM; Zhou el al., Nat Commun. 2017; 8: 1150). Buffer conditions were modified to enhance protein stability by replacing TritonX with 0.05% Tween20 and increasing NaCl to 200 mM. […] The Kinact and KI measurements were taken to allow for continuous reads over 24 hrs. Plates were read every 5 min up to 1 hr, every 15 min up to 5 hr, and every hour up to 10 hours. Kinact and KI were calculated based on the following equations (Krippendorff B F, et al. Mechanism-based inhibition: deriving K(I) and k(inact) directly from time-dependent IC(50) values. J BiomolScreen. 2009; Mons E et al. A Comprehensive Guide for Assessing Covalent Inhibition in Enzymatic Assays Illustrated with Kinetic Simulations. […] The Kinact and KI values could be estimated from the tight curves of the IC50 values over time. [formula]

[2] = target: T1, DCN1 (DCUND1) protein PONY domain (Homo sapiens (Human), UniProt Q96GG9); test: Off-rate measurement of reversible covalent molecules (jump dilution TR-FRET with Cy5 probe); details: binding mode from off-rate measurement
Description: A TR-FRET assay was performed to classify the compounds as an irreversible covalent binder, a reversible covalent binder or a reversible binder.
An assay to measure the off-rate of reversible covalent molecules was developed. A typical covalent compound is assumed to stay bound to a protein for at least the life of that protein in the cell. In reality, there is a range of how long a covalent compounds remains bound before a reverse reaction takes place. Thus, some covalent bonds can be labeled as reversible as their reverse reaction takes place in a measurable amount of time under physiological conditions. The assay capitalizes on the range of covalent binders by using a high affinity covalent binder as a probe to displace the more reversible binders in an adaptation of the jump dilution method.
In this version of the jump dilution method, the increase in covalent probe binding over time was measured through a TR-FRET reaction between the covalent probe and the biotinylated target protein.
(§1) The recombinant form of the DCN1 (DCUND1) protein PONY domain was produced using an E. coli expression system at Viva Biotech (China). The DCN1 protein was biotinylated (EZ sulfo-NHS-LC-biotin; Thermofisher) for labeling with streptavidin terbium (Tb) cryptate in the reaction. This biotinylated protein was used in two forms of the TR-FRET assay as described below.
The off-rate measurement is executed in two steps based on the jump dilution method. […] The greatest dilution allowed within the constraints of the assay was chosen. These factors allow a competitive advantage for the covalent probe to replace the test compound when that compound releases from the target protein. The actual measure is the rate of increased TR-FRET signal as the covalent probe replaces the test compound over time. […] The resulting time dependent curve of the TR-FRET signal is fit to the following equation: Y=Y0+(Plateau−Y0)*(1−exp(−K*x))
K is the rate constant (1/unit of time). The residence time is defined as the inverse of K, the rate constant. The half-life is calculated as ln(2)/K.

[3] = target: T1, DCN1 (DCUND1) protein PONY domain; test: TR-FRET assay (binding to DCN-1, displacement of FAM-labeled probe)
Summary of the method: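 Compounds read at 1, 5 and 24 h, 0.1% final DMSO, by TR-FRET between terbium-streptavidin on biotinylated DCN1 PONY domain (E. coli) and a FAM-tagged non-covalent inhibitor probe. Two setups used, 5 nM protein with 20 nM labelled probe, or 0.31 nM protein with 100 nM labelled plus 800 nM unlabelled probe; buffer had TritonX and 200 mM NaCl. % activity relative to high (with probe) and low (without probe) controls.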

[4] = target: T1, DCN1 (DCUND1) protein PONY domain; test: TR-FRET with FAM probe (compound potency, potency of the Cy5 probe); format: binding; details: potency of the covalent Cy5 probe (P-1) to DCN1; read-out: Kd (EC50) of the Cy5 probe
Text: as §1
This version of the TR-FRET assay was used to measure compound potency to the target, specifically to measure the potency of the Cy5 probe (P-1). A non-covalent DCN1 inhibitor (Zhou et al., 2017) labeled with carboxyfluorescein (FAM) was used as the FRET acceptor probe. Displacement of the […], and thus decrease in the FRET signal, was indicative of compound activity on the target protein. Buffer conditions were optimized to enhance compound and protein stability (200 mM NaCl, 25 mM Tris, 0.5 mM DTT, 0.05% Tween20, 5% DMSO, 5% PEG-3350, pH 7.5) and concentrations of protein (0.31 nM) and probe (100 nM labeled, 800 nM unlabeled) were optimized for detection of potent molecules. The TR-FRET ratio between Tb-DCN1 and the FAM-labeled probe was measured in a 384-well opti-plate (Perkin Elmer) using a plate reader (BMG) at 1, 5, and 24 hrs after treatment with compound. The ratio was normalized to the high (DCN1 and FAM-probe) and low (DCN1 and no probe) controls for a readout of % activity (=100*(x−low)/(high−low)).

[5] = system: Cullin-3 (CUL3) neddylation; details: positive control, 1 μM; Zhou et al. Nature Comm. 2021; cited from earlier work
[6] = 24 hr after treatment with compound, read-out: TR FRET IC50 24 hr
[7] = read-out: TR FRET IC50 1 hr, 1 hr after treatment with compound

T1 sequence (Q96GG9 60-248): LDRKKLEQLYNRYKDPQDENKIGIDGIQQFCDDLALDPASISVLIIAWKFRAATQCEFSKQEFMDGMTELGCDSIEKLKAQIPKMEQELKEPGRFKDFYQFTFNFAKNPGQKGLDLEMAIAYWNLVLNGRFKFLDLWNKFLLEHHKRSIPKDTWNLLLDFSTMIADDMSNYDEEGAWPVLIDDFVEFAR
DCN2 (DCUND2) protein PONY domain, sequence (Q6PH85 60-248): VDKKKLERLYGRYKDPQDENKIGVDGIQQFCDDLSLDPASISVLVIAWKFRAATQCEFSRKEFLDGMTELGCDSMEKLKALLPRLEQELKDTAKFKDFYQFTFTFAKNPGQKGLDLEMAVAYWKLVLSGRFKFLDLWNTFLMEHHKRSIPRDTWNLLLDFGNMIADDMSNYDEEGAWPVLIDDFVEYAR

C=C(CN1CCOCC1)C(=O)NC[C@@H](NC(=O)[C@H](Cc1nc2ccc(C(C)C)cc2s1)NC(=O)CC)C1CCCCC1 [Compound C1, reference compound]
Ki [1]: 0.2 to 0.5 nM | kinact [1]: 0.005 to 0.00833 s⁻¹ | kinact/KI [1]: 8.33e+06 to 1.67e+07 M⁻¹ s⁻¹

C=C(C(=O)NCc1cccc([C@@H]2c3cnn(-c4ccccc4)c3N(CC)C(=O)[C@H]2NC(=O)c2nccc(C(F)(F)F)n2)c1)[C@@H](C)N(C)C1COC1 [Compound I-300]
Category [2]: irreversible | IC50 [3, 6]: ≤ 200 nM | IC50 [3, 7]: ≤ 200 nM

C=C(C(=O)NCc1cccc([C@@H]2c3cnn(-c4ccccc4)c3N(CC)C(=O)[C@H]2NC(=O)c2csc(C(F)(F)F)n2)c1)C(C)N(C)C1COC1 (some centres unmarked) [Compound I-305]
Category [2]: irreversible | Ki [1]: > 0.5 nM | kinact [1]: 0.005 to 0.00833 s⁻¹ | kinact/KI [1]: 167000 to 3.33e+06 M⁻¹ s⁻¹ | IC50 [3, 6]: ≤ 200 nM | IC50 [3, 7]: ≤ 200 nM

C/C=C(\CN1CCN(C2COC2)CC1)C(=O)Nc1cccc([C@@H]2c3cnn(-c4ccccc4)c3N(CC)C(=O)[C@H]2NC(=O)c2ccn(C(F)(F)F)n2)c1 [Compound I-383, N-((4R,5S)-7-ethyl-4-(3-((E)-2-((4-(oxetan-3-yl)piperazin-1-yl)methyl)but-2-enamido)phenyl)-6-oxo-1-phenyl-4,5,6,7-tetrahydro-1H-pyrazolo[3,4-b]pyridin-5-yl)-1-(trifluoromethyl)-1H-pyrazole-3-carboxamide]
Category [2]: irreversible | Ki [1]: > 0.5 nM | kinact [1]: 0.00333 to 0.005 s⁻¹ | kinact/KI [1]: 167000 to 3.33e+06 M⁻¹ s⁻¹ | IC50 [3, 6]: ≤ 200 nM | IC50 ([3]; TR FRET IC50 1 hr (nM), 1 hr after treatment with compound): ≤ 200 nM

C=C(CN1CCOCC1)C(=O)Nc1cccc([C@@H]2c3cnn(-c4cccc(OCCCN5CCN(C(=O)CCCCCN6/C(=C/C=C/C=C/C7=[N+](C)c8ccc(S(=O)(=O)[O-])cc8C7(C)C)C(C)(C)c7cc(S(=O)(=O)O)ccc76)CC5)c4)c3N(CC)C(=O)[C@H]2NC(=O)c2cccc(C(F)(F)F)c2)c1 [Cy5 probe, 2-((1E,3E)-5-((E)-1-(6-(4-(3-(3-((4R,5S)-7-ethyl-4-(3-(2-(morpholinomethyl)acrylamido)phenyl)-6-oxo-5-(3-(trifluoromethyl)benzamido)-4,5,6,7-tetrahydro-1H-pyrazolo[3,4-b]pyridin-1-yl)phenoxy)propyl)piperazin-1-yl)-6-oxohexyl)-3,3-dimethyl-5-sulfoindolin-2-ylidene)penta-1,3-dien-1-yl)-1,3,3-trimethyl-3H-indol-1-ium-5-sulfonate]
EC50 [4]: 23.2 nM

C=C(CN1CCOCC1)C(=O)NC[C@@H](NC(=O)[C@H](Cc1nc2ccc(C(C)C)cc2s1)NC(=O)CC)C1CCCCC1 [DI-1548]
effect on CUL3 neddylation [5]: reduce CUL3 neddylation
